Data set [1] relates to mice with collagen-induced arthritis (CIA). In words: collagen-induced arthritis (CIA) in mice. The conditions noted are these: for tolerability in arthritic mice (body weight changes) / arthritis (clinical arthritis score): CIA mice; for tolerability in arthritic mice (body weight changes): day 24 to day 38; for arthritis (clinical arthritis score): treatment days 24-38. From the text:
As described herein, starting on day 24 after immunization, mice with CIA were intraperitoneally (i.p.) administered daily for 14 consecutive days with vehicle (black diamonds), dexamethasone (black squares), GF9 (white circles), GF9-LPC (black circles) and GA/E31-LPC (half black half white circles) at indicated doses. Daily clinical scores were given on a scale of 0-5 for each of the paws on days 24-38. On day 38, mice were killed and the histopathological examination of mouse joints was performed. Histopathological scores of inflammation (I), pannus (P), cartilage damage (CD), bone resorption (BR) and periosteal new bone formation (PBF) are shown. Summed histopathology scores were calculated as the sum of all five histopathological parameters. All results are expressed as the mean±SEM (n=10 mice per group).
Mouse body weight (BW) was measured every other day from day 24 to day 38. Mean BW changes were calculated as a percentage of the difference between beginning (day 24) and final (day 38) BWs of the CIA mice intraperitoneally (i.p.) treated daily for 14 consecutive days with vehicle, dexamethasone, GF9, GF9-LPC and GA/E31-LPC at indicated doses. All results are expressed as the mean±SEM (n=10 mice per group).
Plasma was collected on days 24, 30 and 38 from arthritic mice treated with vehicle (black diamonds), GF9 (white circles), GF9-LPC (black circles) and GA/E31-LPC (half black half white circles). Plasma samples were analyzed for concentrations of interleukin-1b (IL-1b), IL-6, and colony-stimulating factor 1 (CSF1). Results are expressed as the mean±SEM (n=5 mice per group).

In the next data set the test system is J774 macrophages. Kind of data set: in vitro macrophage uptake (endocytosis) of rho B-labeled peptides and lipopeptide complexes. It is filed as cell-based, murine. The conditions noted are these: for mechanism of macrophage endocytosis (scavenger receptors): J774, 4 h or 22 h, G-HV21 and G-KV21 in the presence of HDL; for in vitro macrophage uptake, presence vs. absence of HDL: rho B-labeled peptides. On the procedure:
In Vitro Macrophage Uptake of GF9HDL and GA/E31HDL A quantitative in vitro macrophage assay of endo-cytosis of rho B-labeled HDL-mimicking lipopeptide complexes by J774 macrophage was performed as described. (18-20) Briefly, BALB/c murine macrophage J774A.1 cells (ATCC) were cultured at 37° C. with 5% CO2 in Dulbecco's modified Eagle's medium (Cellgro Mediatech, Manassas, Va.) with 2 mM glutamine, 100 U/mL penicillin, 0.1 mg/mL streptomycin, and 10% heat-inactivated fetal bovine serum (Cellgro Mediatech) and grown to approximately 90% confluency in 12-well tissue culture plates (Corning Costar, Corning, N.Y.).
Cells were washed twice using phosphate-buffered saline and lysed using Passive Lysis Buffer (Promega, Madison, Wis.). Rho B fluorescence was measured in the lysates with 544-nm excitation and 590-nm emission filters, using a Fluoroscan Ascent CF fluorescence microplate reader (Thermo Labsystems, Vantaa, Finland). Protein concentrations in the lysates were measured using Bradford reagent (Sigma-Aldrich) and an MRX microplate reader (Dynex Technologies, Chantilly, Va.) according to the manufacturer's recommended protocol.

The next data set deals with mouse lipoproteins. In words: ultracentrifugation of mouse serum with added rho B-labeled peptides. The conditions noted are these: for behaviour on ultracentrifugation of delipoproteinized mouse serum: rho B-labeled peptide added to delipoproteinized mouse serum; for behaviour on ultracentrifugation of whole mouse serum: rho B-labeled peptide added to whole mouse serum.

A short description of data set [2]: tolerability in healthy mice (body weight). It is filed as in vivo. On the procedure: As described herein, healthy C57BL/6 mice were intraperitoneally (i.p.) administered daily for 7 consecutive days with GF9 at indicated doses Mouse body weight (BW) was measured daily.
A further data set deals with H292 and A549 xenografts. To be noted: for tumor growth: free peptides i.p. at indicated doses.
Data set [3] concerns DBA/1 mice with collagen-induced arthritis. In words: Collagen-induced arthritis (CIA) model. To be noted: for CIA severity; bone and cartilage damage: 5 mg/kg i.p. daily 14 days, free peptides. The method, then: Animal studies were performed by Bolder BioPATH (Boulder, Colo., USA). CIA was induced in male 6- to 7-week-old DBA/1 mice by immunization with bovine type II collagen. Briefly, mice were injected intradermally with 100 μl of Freund's complete adjuvant containing 250 μg of bovine type II collagen (2 mg/ml final concentration) at the base of the tail on day 0 and again on day 21. On day 24, mice were randomized by body weight into treatment groups. […] Mice were weighed on study days 24, 26, 28, 30, 32, 34, 36 and 38 (prior to necropsy). Daily clinical scores were given on a scale of 0-5 for each of the paws on days 24-38. On day 38, mice were killed for necropsy.
At the end of study, fore paws, hind paws and knees were harvested, fixed in 10% neutral buffered formalin for 1-2 days, and then decalcified in 5% formic acid for 4-5 days before standard processing for paraffin embedding. Sections (8 μm) were cut and stained with toluidine blue (T blue). Hind paws, fore paws and knees were embedded and sectioned in the frontal plane. Six joints from each animal were processed for histopathological evaluation. The joints were then assessed using 0-5 scale for inflammation, pannus formation, cartilage damage, bone resorption and periosteal new bone formation. A summed histopathology score (sum of five parameters, 0-25 scale) was also determined.
Animal studies were performed by Bolder BioPATH (Boulder, Colo., USA). CIA was induced in male 6- to 7-week-old DBA/1 mice by immunization with bovine type II collagen. Briefly, mice were injected intradermally with 100 μl of Freund's complete adjuvant containing 250 μg of bovine type II collagen (2 mg/ml final concentration) at the base of the tail on day 0 and again on day 21. On day 24, mice were randomized by body weight into treatment groups. […] Starting day 24, mice were injected i.p. intraperitoneally daily for 14 consecutive days with 5 mg/kg G-KV21, G-HV21, G-TE21, M-TK32 and M-VE32 or with PBS (vehicle). Mice were weighed on study days 24, 26, 28, 30, 32, 34, 36 and 38 (prior to necropsy). Daily clinical scores were given on a scale of 0-5 for each of the paws on days 24-38. On day 38, mice were killed for necropsy.

Data set [4] in a line: Mouse tolerability studies. The data set is classed as in vivo. The conditions noted are these: female, C57BL/6, mouse, in vivo, ip. The method, then: Naïve, female C57BL/6 mice at 8 to 10 weeks of age (18 to 21 g) from the Jackson Laboratory were used. […] Clinical observations and body weights were made twice daily.
Naïve, female C57BL/6 mice at 8 to 10 weeks of age (18 to 21 g) from the Jackson Laboratory were used. Animals were randomly grouped (5 mice per group) and i.p. injected with 400 mg/kg G-HV21, G-KV21 or G-TE21. Clinical observations and body weights were made twice daily.

Where [5] appears, read: healthy C57BL/6 mice, average weights.
[6] abbreviates: 400 mg/kg, free form, healthy mice.

Residues, ends and D or L forms follow the SMILES beside them. Some results are limits rather than exact numbers.

Protocol for H292 and A549 xenografts: Animal efficacy studies were performed using female 6-8 week old NU/J mice from the Jackson Laboratory (Bar Harbor, Me.). Animals were handled as specified in the USDA Animal Welfare Act (9 CFR, Parts 1, 2, and 3) and as described in the Guide for the Care and Use of Laboratory Animals from the National Research Council. Human lung carcinoma cell lines H292 and A549 were obtained from ATCC. Tumor cells in culture were harvested and resuspended in a 1:1 ratio of RPMI 1640 and Matrigel (BD Biosciences, San Jose, Calif.). NSCLC xenografts were established by injecting subcutaneously into the right flanks 5×10^6 viable cells per mouse. Tumor volumes were calculated with caliper measurements using the formula V=π/6 (length×width×width). […] All tested formulations were intraperitoneally (i.p.) injected at indicated doses and administration schedule. Clinical observations, body weights and tumor volume measurements were made 3 times weekly. Tumor volumes were analyzed using repeated measures ANOVA followed by Bonferroni test. Data points were represented as mean tumor volume±SEM. Antitumor effects were expressed as the percentage of T/C (treated versus control), dividing the tumor volumes from treatment groups with the control groups and multiplied by 100. According to the National Cancer Institute (NCI) standards (see e.g., Johnson, et al. Br J Cancer 2001, 84:1424-1431), a % T/C≤42 is indicative of antitumor activity. At the end of the experiment, the animals were sacrificed and the tumors were excised and weighed.

`CC(C)C[C@H](NC(=O)[C@H](Cc1ccccc1)NC(=O)CN)C(=O)N[C@@H](CO)C(=O)N[C@@H](CCCCN)C(=O)N[C@@H](CO)C(=O)N[C@@H](CC(C)C)C(=O)N[C@H](C(=O)N[C@@H](Cc1ccccc1)C(=O)N[C@@H](Cc1c[nH]c2ccccc12)C(=O)N[C@@H](CCC(N)=O)C(=O)N[C@@H](CCC(=O)O)C(=O)N[C@@H](CCC(=O)O)C(=O)N[C@@H](CC[S+](C)[O-])C(=O)N[C@@H](CCC(=O)O)C(=O)N[C@@H](CC(C)C)C(=O)N[C@@H](Cc1ccc(O)cc1)C(=O)N[C@@H](CCCNC(=N)N)C(=O)N[C@@H](CCC(N)=O)C(=O)N[C@@H](CCCCN)C(=O)N[C@H](C(=O)O)C(C)C)C(C)C` (stereo partly shown) [G-KV21] (HELM PEPTIDE1{G.F.L.S.K.S.L.V.F.W.Q.E.E.[CS(=O)CC[C@H](N[*:1])C(=O)[*:2]].E.L.Y.R.Q.K.V}$$$$V2.0): in data set [1], the “tolerability in arthritic mice (body weight changes)” value is “well-tolerated by arthritic mice” and the “arthritis (clinical arthritis score)” value is on record as “ameliorate the disease”. In addition, in the data set with J774 macrophages, the “mechanism of macrophage endocytosis (scavenger receptors)” value is “SR-mediated in a time-dependent manner and is largely driven by SR-A”; the “in vitro macrophage uptake, presence vs. absence of HDL” value is “significantly increases”. Moreover, in the data set with mouse lipoproteins, the “behaviour on ultracentrifugation of delipoproteinized mouse serum” value is reported as “sedimentate with serum proteins” and the “behaviour on ultracentrifugation of whole mouse serum” value (from here on “behaviour … of whole mouse serum”) is “floatation of these peptides with mouse lipoproteins”. In addition, the “toxicity in healthy mice” value in data set [2] (setting [5]) was “No toxicity was observed”. In the data set on H292 and A549 xenografts, the tumor growth entry is reported as “inhibit tumor growth in two human NSCLC xenograft mouse models”. For the same molecule, in data set [3], the “CIA severity; bone and cartilage damage” value is “ameliorate CIA and protect against bone and cartilage damage”. The molecule also came in with an MTD in data set [4] (setting [6]) of at least 400 mg/kg.
Take `CC(C)C[C@H](NC(=O)[C@H](Cc1ccccc1)NC(=O)CN)C(=O)N[C@@H](CO)C(=O)N[C@@H](CCCCN)C(=O)N[C@@H](CO)C(=O)N[C@@H](CC(C)C)C(=O)N[C@H](C(=O)N[C@@H](Cc1ccccc1)C(=O)NCC(=O)N[C@@H](CCC(=O)O)C(=O)N[C@@H](CCC(=O)O)C(=O)N[C@@H](CC[S+](C)[O-])C(=O)N[C@@H](CCCNC(=N)N)C(=O)N[C@@H](CC(=O)O)C(=O)N[C@@H](CCCNC(=N)N)C(=O)N[C@@H](C)C(=O)N[C@@H](CCCNC(=N)N)C(=O)N[C@@H](C)C(=O)N[C@@H](Cc1c[nH]cn1)C(=O)N[C@H](C(=O)O)C(C)C)C(C)C` (stereo partly shown) [G-HV21] (HELM PEPTIDE1{G.F.L.S.K.S.L.V.F.G.E.E.[CS(=O)CC[C@H](N[*:1])C(=O)[*:2]].R.D.R.A.R.A.H.V}$$$$V2.0): in data set [1], the “tolerability in arthritic mice (body weight changes)” value is on record as “well-tolerated by arthritic mice” and the “arthritis (clinical arthritis score)” value was “ameliorate the disease”. For the same molecule, in the data set with J774 macrophages, the “mechanism of macrophage endocytosis (scavenger receptors)” value was “SR-mediated in a time-dependent manner and is largely driven by SR-A”; the “in vitro macrophage uptake, presence vs. absence of HDL” value is “significantly increases”. For the same molecule, in the data set with mouse lipoproteins, the “behaviour on ultracentrifugation of delipoproteinized mouse serum” value is recorded as “sedimentate with serum proteins” and the “behaviour … of whole mouse serum” value is given as “floatation of these peptides with mouse lipoproteins”. Also, in data set [2] (setting [5]), the “toxicity in healthy mice” value is reported as “No toxicity was observed”. In addition, in the data set on H292 and A549 xenografts, the tumor growth entry is recorded as “inhibit tumor growth in two human NSCLC xenograft mouse models”. Moreover, the “CIA severity; bone and cartilage damage” value in data set [3] was “ameliorate CIA and protect against bone and cartilage damage”. The maximal tolerated dose (MTD) in data set [4] (setting [6]) is at least 400 mg/kg.
For the molecule `CC(C)C[C@H](NC(=O)[C@H](Cc1ccccc1)NC(=O)CN)C(=O)N[C@@H](CO)C(=O)N[C@@H](CCCCN)C(=O)N[C@@H](CO)C(=O)N[C@@H](CC(C)C)C(=O)N[C@H](C(=O)N[C@@H](Cc1ccccc1)C(=O)O)C(C)C` [GF9] (H-GFLSKSLVF-OH), the “penetration of the synovial membrane” value in data set [1] (mouse, in vivo) is “penetrate the synovial membrane”. For the same molecule, the “behaviour … of whole mouse serum” value with mouse lipoproteins is “sedimentate with serum proteins”. In data set [2] (C57BL/6, mouse, in vivo, ip), this molecule gave an MTD at 168 h of at least 300 mg/kg. The “dose tolerated by healthy mice” value in data set [2] (healthy mice, GF9 i.p. daily for 7 consecutive days) is “up to 300 mg/kg”. In addition, the “toxicity in healthy mice” value in data set [2] (mouse, in vivo) is reported as “non-toxic”. For the same molecule, the “toxicity / tolerability in cancer mice” value in the data set with H292 and A549 xenografts (in vivo) was “non-toxic and well-tolerable by cancer mice”. In addition, in data set [3] (mouse, in vivo, ip), the “toxicity / tolerability in arthritic mice” value was “non-toxic and well-tolerable by arthritic mice”. Besides, the MTD in data set [4] is at least 300 mg/kg.

Usually MTD stands for the highest dose tested that stayed within the study's limit of toxicity. Low readings indicate a narrow tolerated range, high ones a wide tolerated range.

(Values after patent US20210322508A1, “PEPTIDES AND COMPOSITIONS FOR TARGETED TREATMENT AND IMAGING” (SIGNABLOK, INC., priority 2018, published 2021).)
